Source: US20190010380A1, “METHOD FOR CONTROLLING BACTERIA IN FORMATIONS USING MOLYBDATE” (priority 2017, published 2019)
Several values for one entry are separate records, joined by “and”; a condition that tells them apart may be missing. Equal values may be shown once.

Key:
SRB [1] = experiment: Hydrogen sulfide inhibition in mock-produced water spiked with SRB (Draeger tubes); type: cell-based, sulfate-reducing bacteria (SRB); conditions: for Total H2S: mock-produced water
Experimental: (§1) Hydrogen sulfide inhibition was tested in mock-produced water approximating water used in hydraulic fracturing operations and was made to a total dissolved solids concentration of 3% with a mixture of instant ocean and NaCl salts. The water was supplemented with nutrients and sulfate to allow SRB to metabolize and create H2S. The water was spiked with SRB and then treated with the various treatment conditions noted below in Table 3 and sealed. Treatment conditions were: Control: No biocide or nitrate.
(§2) 250 ppm 12.3 Glut/Quat Biocide: a mixture of glutaraldehyde and a quarternary ammonia compound was prepared NRB Program: (480 ppm Ca(NO3)2 with 1 ppm live NRB culture. 20 ppm, 40 ppm, 50 ppm, 60 ppm, 80 ppm, 100 ppm, 120 ppm, 150 ppm, and 200 ppm molybdate concentration-.
(§3) H2S was measured at intervals using H2S detecting Draeger tubes. Dissolved H2S was released into the gas phase with the addition of hydrochloric acid so that H2S could be measured with the Draeger tubes to get a complete reading of all H2S produced during the course of the example.

SRB [2] = experiment: Hydrogen sulfide inhibition in actual produced water from the Eagle Ford shale diluted to 3%, spiked with SRB; type: cell-based, sulfate-reducing bacteria (SRB)
Experimental: as §1, §2, §3
Samples were prepared in accordance with Example 1, except that actual produced water sourced from the Eagle Ford shale that was diluted to 3% using deionized water was used in the samples.

[O]=[Mo](=[O])([O-])[O-] [MoO4, molybdate]
Comparison with Glut/Quat biocide and NRB treatment (SRB [1]; mock produced water, concentrations of 150 ppm and above): competitive with other proven treatments | Effect on H2S formation (SRB [1]; mock produced water, molybdate alone, even at lower concentrations): caused a reduction in H2S formation | Total H2S (SRB [1]; 20 ppm MoO4): 1974 ppm | Total H2S (SRB [1]; 40 ppm MoO4): 1066 ppm | Total H2S (SRB [1]; 50 ppm MoO4): 2262 ppm and 1536 ppm | Total H2S (SRB [1]; 60 ppm MoO4): 1846 ppm | Total H2S (SRB [1]; 80 ppm MoO4): 1866 ppm | Total H2S (SRB [1]; 100 ppm MoO4): 738 ppm | Total H2S (SRB [1]; 120 ppm MoO4): 890 ppm | Total H2S (SRB [1]; 150 ppm MoO4): 176 ppm | Total H2S (SRB [1]; 200 ppm MoO4): 40 ppm | Total H2S (SRB [2]; 20 ppm MoO4): 3188 ppm | Total H2S (SRB [2]; 50 ppm MoO4): 234 ppm | Total H2S (SRB [2]; 80 ppm MoO4): 172 ppm | Total H2S (SRB [2]; 100 ppm MoO4): 107 ppm | Total H2S (SRB [2]; 150 ppm MoO4): 160 ppm | Total H2S (SRB [2]; 200 ppm MoO4): 110 ppm | Comparison with Glut/Quat biocide and NRB treatment (SRB [2]; concentrations of 50 ppm and above): competitive with other proven treatments | Effect on H2S formation (SRB [2]; molybdate alone, even at lower concentrations): caused a strong reduction in H2S formation
